{
  "source": "patent US9675624B2",
  "about": "“Combination of levocabastine and fluticasone furoate for the treatment of inflammatory and/or allergic conditions” (Glaxo Group Limited, priority 2012, dated 2017)",
  "experiment": "Competitive ripening experiments on levocabastine free base forms",
  "type": "physicochemical",
  "text": "It has been observed that the levocabastine HCl salt converts during the preparation of formulations of the invention (e.g. as described in Examples 1 and 2) to levocabastine free base. Levocabastine free base Forms 1 and 2 were observed during the form screen of the HCl salt and during pH solubility studies.",
  "data": [
    {"smiles": "C[C@@H]1CN(C2CCC(C#N)(c3ccc(F)cc3)CC2)CC[C@]1(C(=O)O)c1ccccc1", "note": "(stereo partly drawn) [levocabastine Form 1, (3S,4R)-1-[4-cyano-4-(4-fluorophenyl)cyclohexyl]-3-methyl-4-phenylpiperidine-4-carboxylic acid]", "values": [
      {"measurement": "relative stability of polymorphic forms of the free base", "value": "most stable form"}
    ]}
  ]
}
